The test system of data set [1] is NCI-H1975. Description: cells. It counts as functional, cell-based. The following applies: Homo sapiens, NCI-H1975, 72 h.
Description: Antiproliferative activity against human NCI-H1975 cells harboring EGFR L858R/T790M double mutant assessed as reduction in cell viability after 72 hrs by MTT assay
The test system of a further data set is MCF7. The data set can be described thus: cells. As to conditions: Homo sapiens, MCF7, 72 h. It counts as functional, cell-based.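 Further: antiproliferative effect measured by MTT assay in EGFR-overexpressing MCF7 cells, with IC50 based on the drop in viable cells.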
The target in data set [2] is Epidermal growth factor receptor (Homo sapiens, UniProt P00533, L858R/T790M). It counts as protein assay.
Description: Inhibition of recombinant human EGFR L858R/T790M double mutant assessed as reduction in autophosphorylation of cytoplasmic domain by Z'-Lyte assay
The test system of a further data set is A-431. Description: cells. It is filed as functional, cell-based. The following applies: Homo sapiens, A-431, 72 h.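 Further: loss of viability in A431 cells carrying wild-type EGFR, read out by MTT, antiproliferative effect.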
A further data set has as its system A549. Description: cells. It counts as functional, cell-based. As to conditions: Homo sapiens, A549, 72 h.
Data set [3] deals with Epidermal growth factor receptor (Homo sapiens, UniProt P00533).
Description: Inhibition of wild type recombinant human EGFR assessed as reduction in autophosphorylation of cytoplasmic domain by Z'-Lyte assay
The nature of data set [4]: Antiproliferative activity against human HCC827 cells harboring EGFR E746 to A750 deletion mutant assessed as reduction in cell viability after 72 hrs by MTT assay. As to conditions: HCC827, 72 h. It counts as functional, cell-based. A general note: Formazan colour is commonly taken as a measure of viable cells.
Data set [5] concerns Epidermal growth factor receptor (Homo sapiens), P00533 [L858R,T790M]. As to conditions: NCI-H1975, at 1 µM.
Description: Inhibition of EGFR L858R/T790M double mutant in human NCI-H1975 cells assessed as reduction in phosphorylated AKT level at 1 uM after 12 hrs by Western blot analysis
The subject of data set [6] is NCI-H1975. The data set can be described thus: Effect on total AKT level in human NCI-H1975 cells at 0.1 to 10 uM after 12 hrs by Western blot analysis. It counts as ADME, cell-based. The following applies: nci-h1975, 12 h. Background: In western blotting, separated proteins are transferred to a membrane and probed.
In data set [7] the test system is NCI-H1975. Description: Effect on total EGFR L858R/T790M double mutant level in human NCI-H1975 cells at 0.1 to 10 uM after 12 hrs by Western blot analysis. The following applies: nci-h1975, 12 h. It is filed as ADME, cell-based.
Data set [8] concerns Epidermal growth factor receptor (Homo sapiens), P00533 [L858R,T790M]. Description: Potency index, ratio of gefitinib IC50 to compound IC50 for inhibition of recombinant human EGFR L858R/T790M double mutant. It is filed as protein assay.
Data set [9] shares this test system. Description: Inhibition of EGFR L858R/T790M double mutant autophosphorylation in human NCI-H1975 cells after 12 hrs by Western blot analysis. It counts as cell-based.
Data set [10] deals with NCI-H1975. The data set can be described thus: Effect on total beta-actin level in human NCI-H1975 cells at 0.1 to 10 uM after 12 hrs by Western blot analysis. It counts as ADME, cell-based. As to conditions: nci-h1975, 12 h.
Data set [11] concerns NCI-H1975. The data set can be described thus: Potency index, ratio of gefitinib IC50 to compound IC50 for antiproliferative activity against human NCI-H1975 cells harboring EGFR L858R/T790M double mutant. It counts as functional.

The text below walks through data of ChEMBL document CHEMBL3763063, “Novel 4-anilinoquinazoline derivatives featuring an 1-adamantyl moiety as potent EGFR inhibitors with enhanced activity against NSCLC cell lines” (Eur J Med Chem, 2016).

The source made the active and inactive calls. The calls are words filed in the database; no cut-off is given here.

The IC50 is the midpoint of a concentration-inhibition curve.

Description for A-431: Antiproliferative activity against human A431 cells harboring wild type EGFR assessed as reduction in cell viability after 72 hrs by MTT assay
Description for A549: Antiproliferative activity against human A549 cells harboring K-ras mutation assessed as reduction in cell viability after 72 hrs by MTT assay
Description for MCF7: Antiproliferative activity against human MCF7 cells overexpressing EGFR assessed as reduction in cell viability after 72 hrs by MTT assay

For the compound `COc1cc2ncnc(Nc3cc(C(=O)NC45CC6CC(CC(C6)C4)C5)ccc3C)c2cc1OCCCN1CCOCC1`, the half-maximal inhibitory concentration (IC50) amounted to 17.1 µM in the data set on NCI-H1975 [1]; 9.04 µM in the data set on MCF7; 0.0327 µM in [2]; 5.74 µM in the data set on A-431; 6.73 µM in the data set with A549; 0.0154 µM in [3]. The IC50 in data set [4] amounted to 0.014 µM.

Take `COCCOc1cc2ncnc(Nc3ccc(NC(=O)C45CC6CC(CC(C6)C4)C5)c(OC)c3)c2cc1OCCOC`: the 50% inhibitory concentration (IC50) in the data set with NCI-H1975 [1] stood at 33.1 µM; with MCF7 it was 5.19 µM; in [2], 0.0108 µM; with A-431, 6.62 µM; in the data set on A549, 7.62 µM; in [3], 0.00594 µM. In [4], the IC50 is above 0.04 µM.

`COc1cc2ncnc(Nc3cccc(NC(=O)C45CC6CC(CC(C6)C4)C5)c3)c2cc1OCCCN1CCOCC1`: the IC50 was found to be 35.9 µM in the data set with NCI-H1975 [1]; 9.94 µM in the data set with MCF7; 0.159 µM in [2]; 15.9 µM with A-431; 8.86 µM in the data set on A549; 0.00311 µM in data set [3]. In [4], the IC50 is 0.035 µM.

On to `COCCOc1cc2ncnc(Nc3ccc(NC(=O)C45CC6CC(CC(C6)C4)C5)c(C#N)c3)c2cc1OCCOC`, for which the IC50 with NCI-H1975 [1] was 38.3 µM; with MCF7, 5.64 µM; in [2] it was 0.0104 µM; in the data set on A-431, 4.51 µM; with A549, 7.74 µM; in data set [3] it was 0.00501 µM. Besides, in data set [4], the IC50 was above 0.04 µM.

With `COCCOc1cc2ncnc(Nc3ccc(C(=O)NC45CC6CC(CC(C6)C4)C5)cc3)c2cc1OCCOC`, the IC50 with NCI-H1975 [1] was 12.4 µM; in the data set on MCF7 it was 1.25 µM; in data set [2] it was 0.00602 µM; in the data set with A-431 it was 1.02 µM; in the data set on A549 it was 3.42 µM; in data set [3], 0.00961 µM. The IC50 in data set [4] amounted to 0.038 µM. In addition, the inhibition result in data set [5] is “Active”. Also, the Activity entry in the data set with NCI-H1975 [6], with NCI-H1975 [7] and in the data set with NCI-H1975 [10] was “Non-toxic” in each case. Further, the Ratio IC50 in data set [8] stood at 160. The inhibition entry in [9] was “Dose-dependent effect”.

With `COc1cc2ncnc(Nc3cccc(C(=O)NC45CC6CC(CC(C6)C4)C5)c3)c2cc1OCCCN1CCOCC1`, the IC50 with NCI-H1975 [1] was determined as 31 µM; in the data set with MCF7, 23.6 µM; in [2], 0.0115 µM; in the data set with A-431, 10.5 µM; in the data set with A549 it was 11.6 µM; in data set [3] it was 0.00112 µM. Further, in [4], the IC50 stood at 0.02 µM.

With `COc1cc2ncnc(Nc3ccc(C(=O)NC45CC6CC(CC(C6)C4)C5)c(Cl)c3)c2cc1OCCCN1CCOCC1`, the IC50 turned out to be 5.89 µM in the data set with NCI-H1975 [1]; 5.48 µM in the data set with MCF7; 0.00462 µM in [2]; 2.06 µM in the data set with A-431; 2.65 µM with A549; 0.00642 µM in data set [3]. Further, the IC50 in [4] is 0.009 µM. In addition, the inhibition result in [5] was “Active”. Moreover, the Activity result with NCI-H1975 [6], in the data set on NCI-H1975 [7] and in the data set with NCI-H1975 [10] was “Non-toxic” throughout. For the same compound, the Ratio IC50 in data set [8] stood at 160; in the data set with NCI-H1975 [11], 5. Besides, in [9], the inhibition entry was “Dose-dependent effect”.

As for `COCCOc1cc2ncnc(Nc3ccc(NC(=O)C45CC6CC(CC(C6)C4)C5)c(C)c3)c2cc1OCCOC`, the IC50 with NCI-H1975 [1] came out at 21.6 µM; in the data set on MCF7, 8.35 µM; in [2], 0.0663 µM; in the data set on A-431, 5.61 µM; in the data set with A549 it was 8.01 µM; in [3], 0.00292 µM. Also, the IC50 in data set [4] worked out at 0.023 µM.

Regarding `COc1cc2ncnc(Nc3ccc(C(=O)NC45CC6CC(CC(C6)C4)C5)cc3)c2cc1OCCCN1CCOCC1`, the IC50 was above 40 µM in the data set with NCI-H1975 [1]; 12 µM with MCF7; 0.0054 µM in data set [2]; 27.9 µM in the data set on A-431; 6.11 µM in the data set with A549; 0.00201 µM in [3]. Besides, in [4], the IC50 is 0.009 µM. Further, the Ratio IC50 in data set [8] is 160.

As for `COCCOc1cc2ncnc(Nc3ccc(NC(=O)C45CC6CC(CC(C6)C4)C5)cc3C)c2cc1OCCOC`, the IC50 stood at 16.6 µM with NCI-H1975 [1]; 5.34 µM in the data set with MCF7; 0.0165 µM in data set [2]; 4.73 µM in the data set on A-431; 4.58 µM with A549; 0.00452 µM in data set [3]. The IC50 in data set [4] is 0.025 µM.

In the case of `COc1cc2ncnc(Nc3ccc(C(=O)NC45CC6CC(CC(C6)C4)C5)c(C#N)c3)c2cc1OCCCN1CCOCC1`, the IC50 was 26.2 µM with NCI-H1975 [1]; 11.6 µM with MCF7; 0.00571 µM in [2]; 3.39 µM in the data set with A-431; 5.94 µM with A549; 0.00471 µM in data set [3]. For the same compound, the IC50 in data set [4] was 0.02 µM. The Ratio IC50 in [8] turned out to be 160.

In the case of `COCCOc1cc2ncnc(Nc3cccc(NC(=O)C45CC6CC(CC(C6)C4)C5)c3)c2cc1OCCOC`, the IC50 was 18.8 µM with NCI-H1975 [1]; 11.2 µM in the data set on MCF7; 0.0145 µM in data set [2]; 9.52 µM with A-431; 3.99 µM with A549; 0.00163 µM in data set [3]. For the same compound, the IC50 in data set [4] was 0.03 µM.
